Source: patent US20260048047A1, “SMALL-MOLECULE ACTIVATORS OF MYCOBACTERIUM TUBERCULOSIS ADENYLYL CYCLASE” (priority 2022, published 2026)

Test system: M. tuberculosis
Assay: Extracellular activity against M. tuberculosis in cholesterol media (Alamar Blue reduction assay)
Format: cell-based, Mycobacterium tuberculosis
Settings: Mycobacterium tuberculosis, 240 h, 7H12-Cholesterol media, 10 days; read-out: Cholesterol broth: alamar blue--EC50

Structure (SMILES) | EC50 [nM]
Cn1cnc(CC(=O)N2CCC(c3nc(-c4ccc(Cl)c(Cl)c4)no3)CC2)n1 [Compound 153, 1-(4-(3-(3,4-dichlorophenyl)-1,2,4-oxadiazol-5-yl)piperidin-1-yl)-2-(1-methyl-1H-1,2,4-triazol-3-yl)ethan-1-one] | > 10000
Cn1cnc(CC(=O)N2CCC(c3nc(-c4ccc(F)cc4)no3)CC2)n1 [Compound 154, 1-(4-(3-(4-fluorophenyl)-1,2,4-oxadiazol-5-yl)piperidin-1-yl)-2-(1-methyl-1H-1,2,4-triazol-3-yl)ethan-1-one] | > 10000
Cn1cnnc1CC(=O)N1CCC(c2nc(-c3ccc(F)cc3)no2)CC1 [Compound 155, 1-(4-(3-(4-fluorophenyl)-1,2,4-oxadiazol-5-yl)piperidin-1-yl)-2-(4-methyl-4H-1,2,4-triazol-3-yl)ethan-1-one] | > 10000
Cn1cnnc1CC(=O)N1CCC(n2nnc(-c3ccc(F)cc3)n2)CC1 [Compound 156, 1-(4-(5-(4-fluorophenyl)-2H-tetrazol-2-yl)piperidin-1-yl)-2-(4-methyl-4H-1,2,4-triazol-3-yl)ethan-1-one] | > 10000
Cn1ncnc1CC(=O)N1CCC(c2nc(C3CC4CCC3C4)no2)CC1 (centres unmarked) [Compound 157, 1-(4-(3-(bicyclo[2.2.1]heptan-2-yl)-1,2,4-oxadiazol-5-yl)piperidin-1-yl)-2-(1-methyl-1H-1,2,4-triazol-5-yl)ethan-1-one] | 1860
Cn1ncnc1CC(=O)N1CCC(c2nc([C@@H]3CC[C@@](C)(F)C3)no2)CC1 [Compound 158, 1-(4-(3-((1R,3R)-3-fluoro-3-methylcyclopentyl)-1,2,4-oxadiazol-5-yl)piperidin-1-yl)-2-(1-methyl-1H-1,2,4-triazol-5-yl)ethan-1-one] | > 10000
Cn1ncnc1CC(=O)N1CCC(c2nc([C@@H]3CC[C@](C)(F)C3)no2)CC1 [Compound 159, 1-(4-(3-((1R,3S)-3-fluoro-3-methylcyclopentyl)-1,2,4-oxadiazol-5-yl)piperidin-1-yl)-2-(1-methyl-1H-1,2,4-triazol-5-yl)ethan-1-one] | > 10000
Cn1ncnc1CC(=O)N1CCC(c2nc(C3CCC(C)(F)CC3)no2)CC1 (centres unmarked) [Compound 160, 1-(4-(3-(4-fluoro-4-methylcyclohexyl)-1,2,4-oxadiazol-5-yl)piperidin-1-yl)-2-(1-methyl-1H-1,2,4-triazol-5-yl)ethan-1-one] | > 10000
Cn1ncnc1CC(=O)N1CCC(c2noc(C34CC(C)(C3)C4)n2)CC1 [Compound 161, 2-(1-methyl-1H-1,2,4-triazol-5-yl)-1-(4-(5-(3-methylbicyclo[1.1.1]pentan-1-yl)-1,2,4-oxadiazol-3-yl)piperidin-1-yl)ethan-1-one] | > 10000
Cn1ncnc1CC(=O)N1CCC(c2nc(C34CC(C)(C3)C4)no2)CC1 [Compound 162, 2-(1-methyl-1H-1,2,4-triazol-5-yl)-1-(4-(3-(3-methylbicyclo[1.1.1]pentan-1-yl)-1,2,4-oxadiazol-5-yl)piperidin-1-yl)ethan-1-one] | > 10000
Cn1ncnc1CC(=O)N1CCC(c2nc(-c3ccc(Cl)cc3Cl)no2)CC1 [Compound 163, 1-(4-(3-(2,4-dichlorophenyl)-1,2,4-oxadiazol-5-yl)piperidin-1-yl)-2-(1-methyl-1H-1,2,4-triazol-5-yl)ethan-1-one] | 200
Cn1ncnc1CC(=O)N1CCC(c2nc(-c3ccc(Cl)c(Cl)c3)no2)CC1 [Compound 164, 1-(4-(3-(3,4-dichlorophenyl)-1,2,4-oxadiazol-5-yl)piperidin-1-yl)-2-(1-methyl-1H-1,2,4-triazol-5-yl)ethan-1-one] | 64.7
Cn1ncnc1CC(=O)N1CCC(n2nnc(-c3ccc(Cl)c(Cl)c3)n2)CC1 [Compound 165, 1-(4-(5-(3,4-dichlorophenyl)-2H-tetrazol-2-yl)piperidin-1-yl)-2-(1-methyl-1H-1,2,4-triazol-5-yl)ethan-1-one] | 100
Cn1ncnc1CC(=O)N1CCC(c2noc(-c3ccc(Cl)c(Cl)c3)n2)CC1 [Compound 166, 1-(4-(5-(3,4-dichlorophenyl)-1,2,4-oxadiazol-3-yl)piperidin-1-yl)-2-(1-methyl-1H-1,2,4-triazol-5-yl)ethan-1-one] | 710
Cn1ncnc1CC(=O)N1CCC(c2nc(-c3ccc(Cl)cc3)no2)CC1 [Compound 167, 1-(4-(3-(4-chlorophenyl)-1,2,4-oxadiazol-5-yl)piperidin-1-yl)-2-(1-methyl-1H-1,2,4-triazol-5-yl)ethan-1-one] | 221
Cn1ncnc1CC(=O)N1CCC(n2nnc(-c3ccc(Cl)cc3)n2)CC1 [Compound 168, 1-(4-(5-(4-chlorophenyl)-2H-tetrazol-2-yl)piperidin-1-yl)-2-(1-methyl-1H-1,2,4-triazol-5-yl)ethan-1-one] | 472
Cn1ncnc1CC(=O)N1CCC(c2nc(-c3ccc(Cl)c(OC(F)(F)F)c3)no2)CC1 [Compound 169, 1-(4-(3-(4-chloro-3-(trifluoromethoxy)phenyl)-1,2,4-oxadiazol-5-yl)piperidin-1-yl)-2-(1-methyl-1H-1,2,4-triazol-5-yl)ethan-1-one] | 330
Cn1ncnc1CC(=O)N1CCC(c2nc(-c3ccc(OC(F)(F)F)cc3)no2)CC1 [Compound 170, 2-(1-methyl-1H-1,2,4-triazol-5-yl)-1-(4-(3-(4-(trifluoromethoxy)phenyl)-1,2,4-oxadiazol-5-yl)piperidin-1-yl)ethan-1-one] | 130

Structure (SMILES) | EC50 [nM]
Cn1ncnc1CC(=O)N1CCC(n2nnc(-c3ccc(C(F)(F)F)cc3)n2)CC1 [Compound 171, 2-(1-methyl-1H-1,2,4-triazol-5-yl)-1-(4-(5-(4-(trifluoromethyl)phenyl)-2H-tetrazol-2-yl)piperidin-1-yl)ethan-1-one] | 963
Cn1ncnc1CC(=O)N1CCC(c2nc(-c3ccc(C(F)F)cc3)no2)CC1 [Compound 172, 1-(4-(3-(4-(difluoromethyl)phenyl)-1,2,4-oxadiazol-5-yl)piperidin-1-yl)-2-(1-methyl-1H-1,2,4-triazol-5-yl)ethan-1-one] | 2070
Cn1ncnc1CC(=O)N1CCC(c2noc(C34CC(F)(C3)C4)n2)CC1 [Compound 173, 1-(4-(5-(3-fluorobicyclo[1.1.1]pentan-1-yl)-1,2,4-oxadiazol-3-yl)piperidin-1-yl)-2-(1-methyl-1H-1,2,4-triazol-5-yl)ethan-1-one] | > 10000
Cn1ncnc1CC(=O)N1CCC(c2nc(-c3ccc(CF)cc3)no2)CC1 [Compound 174, 1-(4-(3-(4-(fluoromethyl)phenyl)-1,2,4-oxadiazol-5-yl)piperidin-1-yl)-2-(1-methyl-1H-1,2,4-triazol-5-yl)ethan-1-one] | 2260
Cn1ncnc1CC(=O)N1CCC(c2nc(-c3ccc(S(F)(F)(F)(F)F)cc3)no2)CC1 [Compound 175, 2-(1-methyl-1H-1,2,4-triazol-5-yl)-1-(4-(3-(4-(pentafluoro-16-sulfaneyl)phenyl)-1,2,4-oxadiazol-5-yl)piperidin-1-yl)ethan-1-one] | 1630
Cn1ncnc1CC(=O)N1CCC(c2nc(-c3ccc(Cl)c(F)c3)no2)CC1 [Compound 176, 1-(4-(3-(4-chloro-3-fluorophenyl)-1,2,4-oxadiazol-5-yl)piperidin-1-yl)-2-(1-methyl-1H-1,2,4-triazol-5-yl)ethan-1-one] | 115
Cn1ncnc1CC(=O)N1CCC(n2nnc(-c3ccc(Cl)c(F)c3)n2)CC1 [Compound 177, 1-(4-(5-(4-chloro-3-fluorophenyl)-2H-tetrazol-2-yl)piperidin-1-yl)-2-(1-methyl-1H-1,2,4-triazol-5-yl)ethan-1-one] | 170
Cn1ncnc1CC(=O)N1CCC(c2nc(-c3ccc(Cl)cc3F)no2)CC1 [Compound 178, 1-(4-(3-(4-chloro-2-fluorophenyl)-1,2,4-oxadiazol-5-yl)piperidin-1-yl)-2-(1-methyl-1H-1,2,4-triazol-5-yl)ethan-1-one] | 200
Cn1ncnc1CC(=O)N1CCC(c2nc(-c3ccc(F)cc3Cl)no2)CC1 [Compound 179, 1-(4-(3-(2-chloro-4-fluorophenyl)-1,2,4-oxadiazol-5-yl)piperidin-1-yl)-2-(1-methyl-1H-1,2,4-triazol-5-yl)ethan-1-one] | 1970
Cn1ncnc1CC(=O)N1CCC(c2nc(-c3ccc(F)cc3F)no2)CC1 [Compound 180, 1-(4-(3-(2,4-difluorophenyl)-1,2,4-oxadiazol-5-yl)piperidin-1-yl)-2-(1-methyl-1H-1,2,4-triazol-5-yl)ethan-1-one] | 480
Cn1ncnc1CC(=O)N1CCC(c2nc(-c3ccc(F)c(C(F)(F)F)c3)no2)CC1 [Compound 181] | 467
Cn1ncnc1CC(=O)N1CCC(n2nnc(-c3ccc(F)c(Cl)c3)n2)CC1 [Compound 182, 1-(4-(5-(3-chloro-4-fluorophenyl)-2H-tetrazol-2-yl)piperidin-1-yl)-2-(1-methyl-1H-1,2,4-triazol-5-yl)ethan-1-one] | 370
Cn1ncnc1CC(=O)N1CCC(c2nc(-c3ccc(F)c(Cl)c3)no2)CC1 [Compound 183, 1-(4-(3-(3-chloro-4-fluorophenyl)-1,2,4-oxadiazol-5-yl)piperidin-1-yl)-2-(1-methyl-1H-1,2,4-triazol-5-yl)ethan-1-one] | 210
Cn1ncnc1CC(=O)N1CCC(c2nc(-c3ccc(F)c(F)c3)no2)CC1 [Compound 184, 1-(4-(3-(3,4-difluorophenyl)-1,2,4-oxadiazol-5-yl)piperidin-1-yl)-2-(1-methyl-1H-1,2,4-triazol-5-yl)ethan-1-one] | 458
Cn1ncnc1CC(=O)N1CCC(n2nnc(-c3ccc(F)c(F)c3)n2)CC1 [Compound 185, 1-(4-(5-(3,4-difluorophenyl)-2H-tetrazol-2-yl)piperidin-1-yl)-2-(1-methyl-1H-1,2,4-triazol-5-yl)ethan-1-one] | 740
Cn1ncnc1CC(=O)N1CCC(c2nc(-c3ccc(F)cc3)no2)CC1 [Compound 186, 1-(4-(3-(4-fluorophenyl)-1,2,4-oxadiazol-5-yl)piperidin-1-yl)-2-(1-methyl-1H-1,2,4-triazol-5-yl)ethan-1-one] | 480
Cn1ncnc1CC(=O)N1CCC(n2nnc(-c3ccc(F)cc3)n2)CC1 [Compound 187, 1-(4-(5-(4-fluorophenyl)-2H-tetrazol-2-yl)piperidin-1-yl)-2-(1-methyl-1H-1,2,4-triazol-5-yl)ethan-1-one] | 3070
